Consider 19 molecules from patent US20250026778A1 (TIUMBIO CO., LTD., priority 2021, published 2025).

SMILES strings stand for the structures. Like-named read-outs stand apart in the source and are kept apart here.

The target of the assay is T1, his-galectin-3 (Homo sapiens, UniProt P17931).
T1 construct: purchased Abcam
Briefly: TR-FRET assay (in vitro galectin-3 binding inhibitory activity test). The following applies: compound at 20 μM, 60 nM his-galectin-3, 15 nM biotin-ASF. As to the method: TR-FRET Assay (In Vitro Galectin-3 Binding Inhibitory Activity Test)
TR-FRET assay was performed in ½ Area Plate-96 (PerkinElmer). Final concentrations of components in the assay were 60 nM his-galectin-3 (Abcam), 15 nM biotin-ASF (Axxora), 2 nM Mab anti-6×His Tb (Cisbio) and 20 nM SA-d2 (Cisbio). The reaction was performed in a buffer containing 25 mM HEPES, 100 mM NaCl, 0.005% Tween 20 and 0.05% BSA. 20 μL his-galectin-3 and 1 μL compound were mixed first, and then 20 μL biotin-ASF, 5 μL anti-His Tb and 5 μL SA-d2 were added in order. After incubation for at least 3.5 hours at RT, TR-FRET signals were measured at 615/665 nm […] wavelengths using a VICTOR Nivo (PerkinElmer). The positive control used DMSO instead of the compound, and the negative control excluded ASF-biotin. N-acetyl-D-lactosamine (LacNAc), an endogenous ligand unit of galectin-3, was evaluated together as a control substance to compare galectin-3 binding inhibitory activity.
(TR-FRET usually uses a lanthanide donor and a delayed reading to cut background.)

Setting [1] is: Table 2, read-out: % Inhibitory activity (at 20 μM).
The mark [2] stands for this setting: Table 1, read-out: % Inhibitory activity (at 20 μM).
Setting [3] is: read-out: % Inhibitory activity (at 20 μM), Table 1.
Where [4] appears, read: Table 3, found values, read-out: % Inhibitory activity (at 20 μM).

T1 sequence (P17931 whole entry): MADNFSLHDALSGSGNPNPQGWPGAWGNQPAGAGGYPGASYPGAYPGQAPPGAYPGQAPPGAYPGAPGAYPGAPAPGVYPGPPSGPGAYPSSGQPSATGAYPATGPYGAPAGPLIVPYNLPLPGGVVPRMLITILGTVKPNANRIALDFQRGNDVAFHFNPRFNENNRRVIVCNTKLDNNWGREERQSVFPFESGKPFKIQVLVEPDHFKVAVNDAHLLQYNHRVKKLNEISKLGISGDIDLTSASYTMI

Regarding `Cc1cc(C(=O)N[C@@H]2CCO[C@]23O[C@H](CO)[C@H](O)[C@H](n2cc(-c4cc(F)c(F)c(F)c4)nn2)[C@H]3O)c2cc(F)ccc2n1` [Compound A228, N-((4R,5S,7R,8R,9S,10R)-8,10-dihydroxy-7-(hydroxymethyl)-9-(4-(3,4,5-trifluorophenyl)-1H-1,2,3-triazol-1-yl)-1,6-dioxaspiro[4.5]decan-4-yl)-6-fluoro-2-methylquinoline-4-carboxamide], the inhibition at 20 µM under setting [1] was > 75%. `O=C(N[C@@H]1CCO[C@]12O[C@H](CO)[C@H](O)[C@H](n1cc(-c3cc(F)c(F)c(F)c3)nn1)[C@H]2O)c1cccc(-c2ccccc2)c1` [Compound A134, N-((4R,5S,7R,8R,9S,10R)-8,10-dihydroxy-7-(hydroxymethyl)-9-(4-(3,4,5-trifluorophenyl)-1H-1,2,3-triazol-1-yl)-1,6-dioxaspiro[4.5]decan-4-yl)-[1.1′ biphenyl]-3-carboxamide]: the inhibition at 20 µM under setting [2] was > 75%. In the case of `O=C(c1cccc(Cl)c1)N1CCC[C@]2(C1)O[C@H](CO)[C@H](O)[C@H](n1cc(-c3cc(F)c(F)c(F)c3)nn1)[C@H]2O` [Compound A145, (3-chlorophenyl)((2R,3R,4S,5R,6R)-3,5-dihydroxy-2-(hydroxymethyl)-4-(4-(3,4,5-trifluorophenyl)-1H-1,2,3-triazol-1-yl)-1-oxa-8-azaspiro[5.5]undecan-8-yl)methanone], the inhibition at 20 µM under setting [3] was < 25%.

In the case of `O=C(N[C@@H]1CCO[C@]12O[C@H](CO)[C@H](O)[C@H](n1cc(-c3cc(F)c(F)c(F)c3)nn1)[C@H]2O)c1cccc(Cl)c1` [Compound A119, 3-chloro-N-((4R,5S,7R,8R,9S,10R)-8,10-dihydroxy-7-(hydroxymethyl)-9-(4-(3,4,5-trifluorophenyl)-1H-1,2,3-triazol-1-yl)-1,6-dioxaspiro[4.5]decan-4-yl)benzamide], the inhibition at 20 µM reads like this: under setting [3], > 75%; (read-out: % Inhibitory activity (at 20 μM), Table 3, found values) 93.7%.

In the case of `Cc1ccc(C(=O)N[C@@H]2CCO[C@]23O[C@H](CO)[C@H](O)[C@H](n2cc(-c4cc(F)c(F)c(F)c4)nn2)[C@H]3O)c2ccccc12` [Compound A243, N-((4R,5S,7R,8R,9S,10R)-8,10-dihydroxy-7-(hydroxymethyl)-9-(4-(3,4,5-trifluorophenyl)-1H-1,2,3-triazol-1-yl)-1,6-dioxaspiro[4.5]decan-4-yl)-4-methyl-1-naphthamide], the inhibition at 20 µM under setting [1] was > 75%.

In the case of `O=C(Cc1cccc(F)c1)N[C@@H]1CCO[C@]12O[C@H](CO)[C@H](O)[C@H](n1cc(-c3cc(F)c(F)c(F)c3)nn1)[C@H]2O` [Compound A113, N-((4R,5S,7R,8R,9S,10R)-8,10-dihydroxy-7-(hydroxymethyl)-9-(4-(3,4,5-trifluorophenyl)-1H-1,2,3-triazol-1-yl)-1,6-dioxaspiro[4.5]decan-4-yl)-2-(3-fluorophenyl)acetamide], the inhibition at 20 µM under setting [2] was 50 to 75%. Regarding `OC[C@H]1O[C@@]2(CCCN(c3cccc4ccccc34)C2)[C@H](O)[C@@H](n2cc(-c3cc(F)c(F)c(F)c3)nn2)[C@H]1O` [Compound A220, (2R,3R,4S,5R,6R)-2-(hydroxymethyl)-8-(naphthalen-1-yl)-4-(4-(3,4,5-trifluorophenyl)-1H-1,2,3-triazol-1-yl)-1-oxa-8-azaspiro[5.5]undecane-3,5-diol], under setting [1], the inhibition at 20 µM was < 25%. For `O=C(c1cccnc1)N1CCC[C@]2(C1)O[C@H](CO)[C@H](O)[C@H](n1cc(-c3cc(F)c(F)c(F)c3)nn1)[C@H]2O` [Compound A144, ((2R,3R,4S,5R,6R)-3,5-dihydroxy-2-(hydroxymethyl)-4-(4-(3,4,5-trifluorophenyl)-1H-1,2,3-triazol-1-yl)-1-oxa-8-azaspiro[5.5]undecan-8-yl)(pyridin-3-yl)methanone], under setting [2], the inhibition at 20 µM is < 25%. On the same count and under the same terms, for `OC[C@H]1O[C@@]2(CCCO2)[C@H](OCc2ccc3c(c2)OCO3)[C@@H](n2cc(-c3cc(F)c(F)c(F)c3)nn2)[C@H]1O` [Compound A35, (5S,7R,8R,9S,10R)-10-(benzo[d][1,3]dioxol-5-ylmethoxy)-7-(hydroxymethyl)-9-(4-(3,4,5-trifluorophenyl)-1H-1,2,3-triazol-1-yl)-1,6-dioxaspiro[4.5]decan-8-ol] the value was 25 to 50%; for `CC(C(=O)N[C@@H]1CCO[C@]12O[C@H](CO)[C@H](O)[C@H](n1cc(-c3cc(F)c(F)c(F)c3)nn1)[C@H]2O)c1ccccc1` (stereo partly drawn) [Compound A137, N-((4R,5S,7R,8R,9S,10R)-8,10-dihydroxy-7-(hydroxymethyl)-9-(4-(3,4,5-trifluorophenyl)-1H-1,2,3-triazol-1-yl)-1,6-dioxaspiro[4.5]decan-4-yl)-2-phenylpropanamide], 50 to 75%. On to `O=C(N[C@@H]1CCO[C@]12O[C@H](CO)[C@H](O)[C@H](n1cc(-c3cc(F)c(F)c(F)c3)nn1)[C@H]2O)c1cccc2c1CCC2` [Compound A162, N-((4R,5S,7R,8R,9S,10R)-8,10-dihydroxy-7-(hydroxymethyl)-9-(4-(3,4,5-trifluorophenyl)-1H-1,2,3-triazol-1-yl)-1,6-dioxaspiro[4.5]decan-4-yl)-2,3-dihydro-1H-indene-4-carboxamide], for which the inhibition at 20 µM by setting is: under setting [1], 50 to 75%; under setting [4], 69.9%. Consider `OC[C@H]1O[C@]2(OCC[C@H]2NCc2c(O)ccc(F)c2F)[C@H](O)[C@@H](n2cc(-c3cc(F)c(F)c(F)c3)nn2)[C@H]1O` [Compound A63, (4R,5S,7R,8R,9S,10R)-4-((2,3-difluoro-6-hydroxybenzyl)amino)-7-(hydroxymethyl)-9-(4-(3,4,5-trifluorophenyl)-1H-1,2,3-triazol-1-yl)-1,6-dioxaspiro[4.5]decane-8,10-diol], for which the inhibition at 20 µM under setting [2] is < 25%. `O=C(N[C@@H]1CCO[C@]12O[C@H](CO)[C@H](O)[C@H](n1cc(-c3cc(F)c(F)c(F)c3)nn1)[C@H]2O)c1coc2ccc(Br)cc12` [Compound A180, 5-bromo-N-((4R,5S,7R,8R,9S,10R)-8,10-dihydroxy-7-(hydroxymethyl)-9-(4-(3,4,5-trifluorophenyl)-1H-1,2,3-triazol-1-yl)-1,6-dioxaspiro[4.5]decan-4-yl)benzofuran-3-carboxamide]: under setting [1], the inhibition at 20 µM is > 75%. Same read-out and setting: to `Cc1sc2ccccc2c1C(=O)N[C@@H]1CCO[C@]12O[C@H](CO)[C@H](O)[C@H](n1cc(-c3cc(F)c(F)c(F)c3)nn1)[C@H]2O` [Compound A234, N-((4R,5S,7R,8R,9S,10R)-8,10-dihydroxy-7-(hydroxymethyl)-9-(4-(3,4,5-trifluorophenyl)-1H-1,2,3-triazol-1-yl)-1,6-dioxaspiro[4.5]decan-4-yl)-2-methylbenzo[b]thiophene-3-carboxamide] belongs > 75%. Consider `N[C@@H]1CCO[C@]12O[C@H](CO)[C@H](O)[C@H](n1cc(-c3cc(F)c(F)c(F)c3)nn1)[C@H]2O` [Compound A56, (4R,5S,7R,8R,9S,10R)-4-amino-7-(hydroxymethyl)-9-(4-(3,4,5-trifluorophenyl)-1H-1,2,3-triazol-1-yl)-1,6-dioxaspiro[4.5]decane-8,10-diol], for which the inhibition at 20 µM under setting [2] was < 25%. As for `O=C(N[C@@H]1CCO[C@]12O[C@H](CO)[C@H](O)[C@H](n1cc(-c3cc(F)c(F)c(F)c3)nn1)[C@H]2O)c1sc2ccccc2c1Cl` [Compound A156, 3-chloro-N-((4R,5S,7R,8R,9S,10R)-8,10-dihydroxy-7-(hydroxymethyl)-9-(4-(3,4,5-trifluorophenyl)-1H-1,2,3-triazol-1-yl)-1,6-dioxaspiro[4.5]decan-4-yl)benzo[b]thiophene-2-carboxamide], the inhibition at 20 µM under setting [1] was 50 to 75%.

Regarding `O=C(N[C@@H]1CCO[C@]12O[C@H](CO)[C@H](O)[C@H](n1cc(-c3cc(F)c(F)c(F)c3)nn1)[C@H]2O)c1nsc2ccccc12` [Compound A182, N-((4R,5S,7R,8R,9S,10R)-8,10-dihydroxy-7-(hydroxymethyl)-9-(4-(3,4,5-trifluorophenyl)-1H-1,2,3-triazol-1-yl)-1,6-dioxaspiro[4.5]decan-4-yl)benzo[d]isothiazole-3-carboxamide], the inhibition at 20 µM is 50 to 75% under setting [1] and 73% under setting [4]. As to `OC[C@H]1O[C@@]2(CCCN(c3ccncn3)C2)[C@H](O)[C@@H](n2cc(-c3cc(F)c(F)c(F)c3)nn2)[C@H]1O` [Compound A226, (2R,3R,4S,5R,6R)-2-(hydroxymethyl)-8-(pyrimidin-4-yl)-4-(4-(3,4,5-trifluorophenyl)-1H-1,2,3-triazol-1-yl)-1-oxa-8-azaspiro[5.5]undecane-3,5-diol], under “read-out: % Inhibitory activity (at 20 μM), Table 2”, the inhibition at 20 µM is < 25%. For `O=C(N[C@@H]1CCO[C@]12O[C@H](CO)[C@H](O)[C@H](n1cc(-c3cc(F)c(F)c(F)c3)nn1)[C@H]2O)c1csc2ccc(F)cc12` [Compound A249, N-((4R,5S,7R,8R,9S,10R)-8,10-dihydroxy-7-(hydroxymethyl)-9-(4-(3,4,5-trifluorophenyl)-1H-1,2,3-triazol-1-yl)-1,6-dioxaspiro[4.5]decan-4-yl)-5-fluorobenzo[b]thiophene-3-carboxamide], the inhibition at 20 µM is > 75% under setting [1] and 89.9% under setting [4].
